Values joined by “and” are separate entries in the source; they are usually repeats but may differ in a detail not shown here. Equal values may be shown once. “Also recorded” adds a separate entry of the source.
What was measured:
[1] = system: 42 human cytokines; test: Antibody membrane array (RayBio Human Cytokine Array III) screen of patient plasma; format: in vivo; settings: plasma of one Trial B patient, confirmed by MIG ELISA
Description: All of the ELISA-based screening of candidate proteins were performed with commercially available ELISA kits; the kits for the biomarkers described in this report are all available from R&D Systems (Minneapolis, Minn.). A commercially available membrane array containing antibodies for the detection of 42 human cytokines was also used in screening of a patient's plasma samples before and after treatment. The antibody array used in cytokine screening (RayBio Human Cytokine Array III) was from RayBiotech (Norcross, Ga.).

[2] = system: VEGF/PLGF heterodimers; test: Hybrid ELISA for VEGF/PLGF heterodimers in patient plasma; format: in vivo, human; settings: Trial C
From the text: Heterodimers of VEGF and PLGF have been reported in the scientific literature. To measure heterodimers, a hybrid ELISA assay was used, combining reagents from both the R&D Systems VEGF and PLGF ELISA kits (where VEGF antibodies are used in capture step and PLGF antibodies are used in detection step).

[3] = system: FLT3 ligand (FL); test: FLT3 ligand plasma ELISA; format: in vivo, human
Description: Reagents for FLT3 ligand (FL) and IL-6 ELISA kits were obtained from R&D Systems, Inc. (Minneapolis, Minn.; catalog #s DFK00, Q6000). […] ELISAs were performed on patient plasma according to the manufacturers' instructions. The FL and CRP kits relied on a colorimetric readout; the optical density of each well was determined using a microplate spectrophotometer and data was analyzed using KC-4 software from Bio-Tek Instruments, Inc. The IL-6 kit was a chemiluminescent sandwich ELISA; luminescence values were determined on a microplate luminometer. SOFTmaxPRO software was used to extrapolate cytokine concentrations from the standard curves.

[4] = system: IL-6; test: IL-6 plasma ELISA; format: in vivo, human; settings: patients, FIG. 26
Description: (§1) Reagents for FLT3 ligand (FL) and IL-6 ELISA kits were obtained from R&D Systems, Inc. (Minneapolis, Minn.; catalog #s DFK00, Q6000). C-reactive protein (CRP) (accession ID AAA 52075) ELISA kits were obtained from KMI Diagnostics (Minneapolis, Minn.; catalog #EU59131). ELISAs were performed on patient plasma according to the manufacturers' instructions. The FL and CRP kits relied on a colorimetric readout; the optical density of each well was determined using a microplate spectrophotometer and data was analyzed using KC-4 software from Bio-Tek Instruments, Inc. The IL-6 kit was a chemiluminescent sandwich ELISA; luminescence values were determined on a microplate luminometer. SOFTmaxPRO software was used to extrapolate cytokine concentrations from the standard curves.

[5] = system: IP-10; test: IP-10 plasma ELISA, Compound 1 Phase I trials; format: in vivo, human
Description: (§2) In Trials A and B, patients received Compound 1.
(§3) Data analysis was performed for each marker.

[6] = system: C-reactive protein (CRP); test: C-reactive protein plasma ELISA; format: in vivo, human; settings: patients, FIG. 27
Description: as §1

[7] = system: OB-cadherin 1 (cadherin 11); test: Immunohistochemistry of OB-cadherin 1 in Colo205 xenograft tumors; format: in vivo, mice; settings: 24 or 48 hours exposure, vs vehicle treated, IHC
From the text: Colo205 human colon xenograft tumors were isolated and fixed in Streck Tissue Fixative (Streck Laboratories, Inc., La Vista, […].). Samples used in immunohistochemistry were sent out to BioPathology Sciences Medical Corporation (South San Francisco, Calif.) for paraffin embedding and sectioning.
A rabbit polyclonal antibody recognizing the cytoplasmic tail region of OB-cadherin 1 (cadherin 11) was purchased from Zymed Laboratories, Inc. (Zymed reagent #71-7600; South San Francisco, Calif.).
Sections (4-5 μm) stained using an automated immunohistochemistry system (Benchmark System, Ventana Medical Systems, Inc., Tucson, Ariz.). In brief, slides were deparaffinized using heat at 75° C. and Ventana's EZ Prep product (Ventana reagent #950-102). Antigen retrieval was performed by incubating the slides for 30 min with Ventana's CC2 product (Ventana reagent #950-123), a citrate-based solution with pH 6.0. Primary antibody (5 μg/ml) was incubated for 24 min at room temperature, followed by a secondary detection system, using biotinylated secondary antibody (Vector anti-rabbit secondary, BA-1000, at 2.5 μg/ml; Vector Laboratories, Burlingame, Calif.) with incubation time of 8 min. […] All samples analyzed for OB-cadherin 1 expression were also stained with the omission of primary antibody as a negative control.

[8] = system: I-TAC; test: I-TAC plasma ELISA, Compound 1 Phase I trials; format: in vivo, human
Description: as §2, §3

[9] = system: HUVEC; test: pro-MMP1 ELISA of HUVEC conditioned media; format: cell-based, human; settings: for Average pro-MMP1: HUVEC conditioned media
Description: Cells were propagated at 37° C. in a humidifed atmosphere of 5% CO2 using standard cell culture techniques. Cells were plated in 10-cm tissue culture plates at 8.5×10^5 cells/ml. After 6 hours the cells were quiesced by serum starvation overnight in starvation medium (EBM containing 0.5% FBS). […] Conditioned media was stored at −70° C. until subsequent analysis.
Reagents for human pro-Matrix Metalloproteinase 1 (pro-MMP-1) ELISA kits were obtained from R&D Systems, Inc. (Minneapolis, Minn.; catalog #DMP100). ELISAs were performed on conditioned media samples according to the manufacturers' instructions. The optical density of each well was determined using a universal microplate spectrophotometer (μQuant) from Bio-Tek Instruments, Inc. (Winooski, Vt.). KC-4 software from Bio-Tek Instruments, Inc. was used to extrapolate cytokine concentrations from the standard curves.

[10] = system: HUVECs; test: 2D gel analysis of conditioned media of VEGF-stimulated HUVECs; format: cell-based, human; settings: HUVEC conditioned media; VEGF and compound 1 (1 uM) at 24 h; Run #1, Run #2
Description: Thawed conditioned media samples were precipitated with three volumes of acetone for 2 hours at −20° C., then centrifuged at 13000 RPM for 15 minutes. […] Protein was quantitated with Bio-Rad Protein Assay (cat#500-0006) using the microassay for cuvettes protocol.
Samples were diluted to 0.3 μg/μl with IEF Buffer containing 1% IPG Buffer pH 3-10 (Amersham). Eighteen centimeter IPG strips pH 3-10 (Amersham) were rehydrated with 120 μg sample (400 μL) under Drystrip Cover Fluid (Amersham) on the IPGphor (Amersham) at 20° C. for 18 hours. Strips were focused with the following program: 200 volts for 1 hour, ramped from 200 volts to 1000 volts over two hours, held at 1000 volts for 1 hour, ramped from 1000 volts to 8000 volts over 6 hours, then held at 8000 volts for 10 hours. […] Gels were over-layed with water-saturated butanol (Fisher), and left to polymerize at room temperature overnight.
Focused strips were equilibrated for ten minutes with gentle shaking in 10 milliliters Equilibration Buffer: 6 M Urea (Fisher), 50 mM tris-HCl pH 8.8 (Fisher), 30% glycerol (Fisher), 2% SDS (Fisher) with 1% dithiothreitol followed by ten minutes in Equilibration Buffer with 4% iodoacetamide.
The equilibrated strips were loaded onto the gel surfaces and sealed with hot agarose overlay solution containing 0.5% agarose in 50 mM tris-HCl pH 6.8, 2% SDS. […]

[11] = system: MIG; test: MIG plasma ELISA, Compound 1 Phase I trials; format: in vivo, human; settings: individual patients; in pg/mL (unit assumed)
Description: as §2, §3

[12] = system: pro-MMP1; test: pro-MMP1 levels in plasma of Study B patients; format: in vivo, human; settings: Study B patients after receiving compound
[13] = patients checked for both proteins

`CCN(CC)CCNC(=O)c1c(C)[nH]c(C=C2C(=O)Nc3ccc(F)cc32)c1C` [Compound 1, 5-(5-Fluoro-2-oxo-1,2-dihydro-indol-3-ylidenemethyl)-2,4-dimethyl-1H-pyrrole-3-carboxylic acid (2-diethylamino-ethyl)-amide] was tested, and the “level of MIG after treatment vs baseline” value [1] was “significantly higher”, the “patients tested with increase in plasma levels of VEGF/PLGF heterodimer” value [2] was 3 of 3 and the “patients exhibiting an increase in FLT3 ligand (FL) concentration” value ([3]; 18 patients enrolled in Trial B, day 1 to day 28) was 100%. The “FLT3 ligand (FL) plasma level during treatment” value ([3]; expanded set of patients, FIG. 25) was “induced; also recorded: Dramatic induction”, the “interleukin-6 (IL-6) plasma level during treatment” value [4] was “induced” and the “IP-10 plasma level, end C1 dosing” value ([5]; individual patients, >500 = above highest standard) was greater than 500. For the same compound, the “patients with MIG and IP-10 induced in tandem” value [5, 13] was 6 of 6, the “C-reactive protein (CRP) plasma level during treatment” value [6] was “induced” and the “protein expression of OB-cadherin 1 (cadherin 11)” value [7] was “up-regulated; also recorded: up-regulation”. The “I-TAC plasma level, end C1 dosing” value ([8]; individual patients, in pg/mL (unit assumed)) was >4000.0 and 212.26, the “patients with MIG and I-TAC induced in tandem” value [8, 13] was 5 of 5 and the “Average pro-MMP1” value ([9]; 10 nM pre-treatment, 10 min post-VEGF) was 5.41 ng/mL. The “Average pro-MMP1” value ([9]; 10 nM pre-treatment, 8 hr post-VEGF) was 14.93 ng/mL, the “Average pro-MMP1” value ([9]; 10 nM pre-treatment, 24 hr post-VEGF) was 70.21 ng/mL and the “Average pro-MMP1” value ([9]; 10 nM pre-treatment, 48 hr post-VEGF) was 135.35 ng/mL. For the same compound, the “Average pro-MMP1” value ([9]; 100 nM pre-treatment, 10 min post-VEGF) was 5.78 ng/mL, the “Average pro-MMP1” value ([9]; 100 nM pre-treatment, 8 hr post-VEGF) was 12.75 ng/mL and the “Average pro-MMP1” value ([9]; 100 nM pre-treatment, 24 hr post-VEGF) was 50.26 ng/mL. The “Average pro-MMP1” value ([9]; 100 nM pre-treatment, 48 hr post-VEGF) was 128.75 ng/mL, the “Average pro-MMP1” value ([9]; 1 uM pre-treatment, 10 min post-VEGF) was 5.04 ng/mL and the “Average pro-MMP1” value ([9]; 1 uM pre-treatment, 8 hr post-VEGF) was 14.48 ng/mL. For the same compound, the “Average pro-MMP1” value ([9]; 1 uM pre-treatment, 24 hr post-VEGF) was 50.42 ng/mL, the “Average pro-MMP1” value ([9]; 1 uM pre-treatment, 48 hr post-VEGF) was 103.09 ng/mL and the “levels of pro-MMP1 in HUVEC conditioned media” value ([9]; VEGF-treated HUVEC, pre-incubation at 10 nM, 100 nM or 1 uM) was “decreased”. The “Spot #1202 (pro-MMP-1) quantification, 2D gel” value [10] was 270 and 484.7, the “MIG plasma level, end C1 dosing” value [11] was 138.56 and 739.71 and the “pro-MMP1 levels in plasma of patients” value [12] was “increased”.

— patent publication US20040018528A1, “Novel biomarkers of tyrosine kinase inhibitor exposure and activity in mammals” (Sugen, Inc., priority 2002, published 2004)
